The structures appear in SMILES notation. In brackets after ≈: the same amount, converted by molar mass. Read-outs that look alike come from different tables or passages of the source. Starred links: 1 amine or outer side, 2 acyl side, 3 side chain; linkers in the order of their positions; H or OH if unused. Non-standard residues stand in square brackets, D forms with d. Residues, ends and D or L forms follow the SMILES beside them. Groups on a side chain read outwards from the residue. *: point of attachment. C16 diacid = O=C(O)CCCCCCCCCCCCCCC(=O)*; γGlu = O=C(O)[C@H](CCC(=O)[*:2])N[*:1]; Palmitoyl = CCCCCCCCCCCCCCCC(=O)*; Aib = CC(C)(N)C(=O)O

One data set addresses T1, CRF2R (Homo sapiens, UniProt Q13324).
T1 construct: expressed in transfected cells; host or cells: TeloHEAC
In words: EC50 [nM] CRF2R. From the text: Table printed on a drawing sheet, Fig. 3
Head of the field: EC50 [nM] CRF2R
The patent's description of the figure: FIG. 3: Representative sequences from peptides according to the invention with an optimized stability profile, wherein K[sema] stands for K[gGlu-C(O)(CH2)14CH3]
First copying reader's note: Second half (positions 13-38, C-term and activity) of the first table; the rows follow the same order, so the four rows of Peptide Seq. 1 are Patent Sequence N° 130, 171, 172 and 173.
Where the first naming reader finds the target: head: EC50 [nM] CRF2R

The target in another data set is T2, human CRF2α receptor (Homo sapiens, UniProt Q13324).
T2 construct: expressed in transfected cells; host or cells: TeloHEAC
T2 sequence (Q13324 1-411): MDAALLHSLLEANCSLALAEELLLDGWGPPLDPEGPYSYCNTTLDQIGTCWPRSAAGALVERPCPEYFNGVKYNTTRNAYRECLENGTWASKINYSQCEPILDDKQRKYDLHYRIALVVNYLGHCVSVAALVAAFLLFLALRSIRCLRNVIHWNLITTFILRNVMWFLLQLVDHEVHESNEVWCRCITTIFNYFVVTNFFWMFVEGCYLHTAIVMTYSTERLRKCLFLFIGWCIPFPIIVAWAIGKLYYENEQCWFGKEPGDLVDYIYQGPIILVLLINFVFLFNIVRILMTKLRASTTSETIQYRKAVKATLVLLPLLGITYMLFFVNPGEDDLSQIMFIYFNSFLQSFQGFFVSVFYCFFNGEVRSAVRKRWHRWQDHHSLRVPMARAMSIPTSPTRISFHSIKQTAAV
In words: cAMP agonism at human CRF2α receptor in TeloHEAC cells, FA modified peptides (Example 19.9). Type of data set: cell-based. The note with it: 0% HSA, relative to urocortin 2. An outline of the steps:
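Efficacy and EC50 are referenced to 100 nM urocortin 2 as 100%, with cAMP measured as the 665/620 nm HTRF ratio after 1 h at room temperature. Compounds (0.5 mM DMSO stock, 16 twofold dilutions) acted 30 min at 37 °C on CRF2α-expressing TeloHEAC cells, buffer containing IBMX and 0% or 0.2% HSA.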

The next data set has as its target T3, CRF1R receptor (Homo sapiens, UniProt P34998).
T3 construct: host or cells: CHO-K1 clone 2
T3 sequence (P34998 24-415): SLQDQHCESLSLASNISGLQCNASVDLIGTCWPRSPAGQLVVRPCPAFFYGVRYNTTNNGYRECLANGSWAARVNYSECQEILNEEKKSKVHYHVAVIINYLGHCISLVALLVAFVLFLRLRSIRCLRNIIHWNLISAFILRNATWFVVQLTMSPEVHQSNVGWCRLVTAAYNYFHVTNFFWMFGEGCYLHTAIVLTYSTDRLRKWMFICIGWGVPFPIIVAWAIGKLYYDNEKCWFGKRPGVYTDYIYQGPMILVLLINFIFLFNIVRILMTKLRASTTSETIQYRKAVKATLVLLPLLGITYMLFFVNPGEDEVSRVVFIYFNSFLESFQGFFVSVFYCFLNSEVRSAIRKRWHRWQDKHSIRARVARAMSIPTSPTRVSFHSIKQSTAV
In words: cAMP activity at anti-target CRF1R, CHO-K1 cell line clone 2 (Example 19.10). Type of data set: cell-based. An outline of the steps: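 A CRF1R-overexpressing CHO-K1 line (clone 2) was grown in F12/10% FBS/G418 and frozen in aliquots before use. The cAMP assay followed the preceding procedure, with 100% activation defined by Sauvagine at 100 nM.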

A short description of data set [1]: In vitro plasma stability, rat plasma (Example 19.11). Conditions: male, Sprague Dawley, rat, plasma, 37° C. Type of data set: in vitro ADME, Sprague Dawley rats. Set-up: remaining at 2 h: dose or concentration left out as unconfirmed. Here is the method:
(§1) In vitro plasma metabolic stability was studied in male Sprague Dawley rats and human. Test compound were incubated […] for 2 hours at 37° C. At each time point (0, 0.25, 1 and 2 h), samples were prepared for analysis by means of a single step protein precipitation technique by adding 150 μL of ethanol, 0.1% formic acid to 50 μL aliquots of plasma. Samples were mixed by vortex for homogeneity and then subjected to centrifugation at 14000 rpm for 15 min. The supernatant (100 μL) was collected, diluted with 100 μL of water, 0.1% formic acid and analyzed by LC-HRMS (TripleTOF 6600+, AB Sciex). For each test compound, the area ratios at each time point were compared to the 0 h area ratio and converted to a percentage remaining.

Data set [2] can be described thus: In vitro plasma stability, human plasma (Example 19.11). The format is in vitro ADME. Further details: dose or concentration left out as unconfirmed. Conditions: 37° C. Here is the method:
as §1

Data set [3] in a line: Buffer solubility by LC-UV, pH 7.4 phosphate and pH 4.5 acetate (Example 19.11). The note with it: target 10 mg/mL. Type of data set: physicochemical. Here is the method: As for example 15 above, also the chemical stability of representative examples of these FA modified peptides has been assessed, using LC-UV instead of light scattering. Solubility and chemical stability were studied in 100 mM phosphate buffer (pH 7.4) and 100 mM acetate buffer (pH 4.5). Test compound powders were dissolved in both buffers at a target concentration of 10 mg/mL and incubated for 1 hour at room temperature. After centrifugation at 2500 rcf for 15 minutes, […] of supernatant was diluted with […] of the incubation buffer and analyzed by LC-UV (Acquity UPLC-DAD, Waters). Solubility was calculated by comparing the peak area of the test compound in the buffer sample with the peak area of the same compound dissolved at 0.5 mg/ml in water:acetonitrile 1:1, 0.1% formic acid.

With `CCCCCCCCCCCCCCCC(=O)N[C@@H](CCC(=O)NCCCC[C@H](NC(=O)[C@H](CC(C)C)NC(=O)CNC(=O)[C@@H](NC(=O)[C@@H]1CCCN1C(=O)[C@@H](NC(=O)[C@H](CC(=O)O)NC(=O)[C@H](CC(C)C)NC(=O)[C@H](CO)NC(=O)[C@H](CC(C)C)NC(=O)[C@@H](NC(=O)[C@@H](N)[C@@H](C)CC)C(C)C)C(C)C)[C@@H](C)CC)C(=O)N[C@@H](CCC(N)=O)C(=O)N[C@@H](CCCCN)C(=O)N[C@@H](CC(C)C)C(=O)N[C@@H](CC(C)C)C(=O)N[C@@H](CCCCN)C(=O)N[C@@H](CCC(N)=O)C(=O)N[C@@H](CCC(N)=O)C(=O)N[C@@H](CCCNC(=N)N)C(=O)N[C@@H](CCC(N)=O)C(=O)N[C@@H](CCCNC(=N)N)C(=O)N[C@@H](CCCCN)C(=O)N[C@@H](CCC(=O)O)C(=O)N[C@@H](CCCNC(=N)N)C(=O)N[C@@H](CCC(N)=O)C(=O)N[C@@H](CCC(N)=O)C(=O)N[C@@H](C)C(=O)N[C@@H](CCC(=O)O)C(=O)N[C@@H](CCCCN)C(=O)N[C@@H](CC(N)=O)C(=O)N[C@@H](C)C(=O)N[C@@H](CCCNC(=N)N)C(=O)N[C@H](C(=O)N[C@@H](CC(C)C)C(=O)N[C@@H](C)C(=O)N[C@@H](CCCNC(=N)N)C(=O)N[C@H](C(N)=O)C(C)C)[C@@H](C)CC)C(=O)O` [SEQ ID NO: 6] (H-IVLSLDVPIGLK([γGlu-Palmitoyl])QKLLKQQRQRKERQQAEKNARILARV-NH2), on CRF2R, the EC50 came out at 0.06 nM.

On CRF2R, `CCCCCCCCCCCCCCCC(=O)N[C@@H](CCC(=O)NCCCC[C@H](NC(=O)[C@@H](NC(=O)[C@H](CCCCN)NC(=O)[C@@H](NC(=O)[C@@H]1CCCN1C(=O)[C@@H](NC(=O)[C@H](CC(=O)O)NC(=O)[C@H](CC(C)C)NC(=O)[C@H](CO)NC(=O)[C@H](CC(C)C)NC(=O)[C@@H](NC(=O)[C@@H](N)Cc1ccccc1)[C@@H](C)O)C(C)C)[C@@H](C)O)[C@@H](C)CC)C(=O)N[C@@H](CCC(N)=O)C(=O)N[C@@H](CCCCN)C(=O)N[C@@H](CC(C)C)C(=O)N[C@@H](CC(C)C)C(=O)N[C@@H](CCCCN)C(=O)N[C@@H](CCC(N)=O)C(=O)N[C@@H](CCC(=O)O)C(=O)N[C@@H](CCCCN)C(=O)N[C@@H](CCC(N)=O)C(=O)N[C@@H](CCCCN)C(=O)N[C@@H](CCCCN)C(=O)N[C@@H](CCC(N)=O)C(=O)N[C@@H](CCCNC(=N)N)C(=O)N[C@@H](CCC(N)=O)C(=O)N[C@@H](CCCCN)C(=O)N[C@@H](C)C(=O)N[C@@H](CCCCN)C(=O)N[C@H](C(=O)N[C@@H](C)C(=O)N[C@@H](C)C(=O)N[C@@H](CCC(N)=O)C(=O)N[C@H](C(=O)N[C@@H](CC(C)C)C(=O)N[C@@H](C)C(=O)N[C@@H](CCC(N)=O)C(=O)N[C@H](C(N)=O)C(C)C)[C@@H](C)CC)[C@@H](C)O)C(=O)O` [SEQ ID NO: 8] (H-FTLSLDVPTKIK([γGlu-Palmitoyl])QKLLKQEKQKKQRQKAKTAAQILAQV-NH2) showed an EC50 of 0.18 nM.

`CCCCCCCCCCCCCCCC(=O)N[C@@H](CCC(=O)NCCCC[C@H](NC(=O)[C@@H](NC(=O)[C@H](CCCCN)NC(=O)[C@@H](NC(=O)[C@@H]1CCCN1C(=O)[C@@H](NC(=O)[C@H](CC(=O)O)NC(=O)[C@H](CC(C)C)NC(=O)[C@H](CO)NC(=O)[C@H](CC(C)C)NC(=O)[C@@H](NC(=O)[C@@H](N)Cc1ccccc1)[C@@H](C)O)C(C)C)[C@@H](C)O)[C@@H](C)CC)C(=O)N[C@@H](CCC(N)=O)C(=O)N[C@@H](CCCCN)C(=O)N[C@@H](CC(C)C)C(=O)N[C@@H](CC(C)C)C(=O)N[C@@H](CCCCN)C(=O)N[C@@H](CCC(N)=O)C(=O)N[C@@H](CCC(=O)O)C(=O)N[C@@H](CCCCN)C(=O)N[C@@H](CCC(N)=O)C(=O)N[C@@H](CCCCN)C(=O)N[C@@H](CCCCN)C(=O)N[C@@H](CCC(N)=O)C(=O)N[C@@H](CCCNC(=N)N)C(=O)N[C@@H](CCC(N)=O)C(=O)N[C@@H](CCCCN)C(=O)N[C@@H](C)C(=O)N[C@@H](CCCCN)C(=O)N[C@H](C(=O)N[C@@H](C)C(=O)N[C@@H](CCCCN)C(=O)N[C@@H](CCC(N)=O)C(=O)N[C@H](C(=O)N[C@@H](CC(C)C)C(=O)N[C@@H](CCC(=O)O)C(=O)N[C@@H](CCC(N)=O)C(=O)N[C@H](C(N)=O)C(C)C)[C@@H](C)CC)[C@@H](C)O)C(=O)O` [SEQ ID NO: 9] (H-FTLSLDVPTKIK([γGlu-Palmitoyl])QKLLKQEKQKKQRQKAKTAKQILEQV-NH2): the midpoint of the response on CRF2R, the EC50, lay at 0.08 nM.

As to `CC[C@H](C)[C@H](N)C(=O)N[C@H](C(=O)N[C@@H](CC(C)C)C(=O)N[C@@H](CO)C(=O)N[C@@H](CC(C)C)C(=O)N[C@@H](CC(=O)O)C(=O)N[C@@H](C(=O)N1CCC[C@H]1C(=O)N[C@H](C(=O)NCC(=O)N[C@@H](CC(C)C)C(=O)N[C@@H](CCCCNC(=O)CC[C@H](NC(=O)CCCCCCCCCCCCCCC(=O)O)C(=O)O)C(=O)N[C@@H](CCC(N)=O)C(=O)N[C@H](C(=O)N[C@@H](CC(C)C)C(=O)N[C@@H](CC(C)C)C(=O)N[C@@H](CCCCN)C(=O)N[C@@H](CCC(N)=O)C(=O)N[C@@H](CCC(=O)O)C(=O)N[C@@H](CCCNC(=N)N)C(=O)N[C@@H](CCC(N)=O)C(=O)N[C@@H](CCCCN)C(=O)N[C@@H](CCCCN)C(=O)NC(C)(C)C(=O)N[C@@H](CCCNC(=N)N)C(=O)N[C@@H](CCC(=O)O)C(=O)N[C@@H](CCC(N)=O)C(=O)N[C@@H](C)C(=O)N[C@@H](CCC(=O)O)C(=O)N[C@H](C(=O)N[C@@H](CC(N)=O)C(=O)N[C@@H](CCCCN)C(=O)N[C@@H](CCCNC(=N)N)C(=O)N[C@H](C(=O)N[C@@H](CC(C)C)C(=O)N[C@@H](CCC(=O)O)C(=O)N[C@@H](CCCNC(=N)N)C(=O)N[C@H](C(N)=O)C(C)C)[C@@H](C)CC)[C@@H](C)O)[C@@H](C)CC)[C@@H](C)CC)C(C)C)C(C)C` [compound 193] (H-IVLSLD[dV]PIGLK([γGlu-C16 diacid])QILLKQERQKK[Aib]REQAETNKRILERV-NH2), the EC50 on human CRF2α receptor is 0.82 nM; on CRF1R receptor (0% HSA, CRF1R CHO-K1 clone 2, read-out: EC50 [nM] 0% HSA), greater than 100 nM; on CRF1R receptor (Table 20 side-to-side comparison, read-out: CRF1 EC50), greater than 100 nM. This compound also came in with an Emax on CRF1R receptor (100% = Sauvagine at 100 nM, CRF1R CHO-K1 clone 2) of 8.77%. For the same compound, the CRF1/CRF2 ratio at CRF1R receptor (ratio of CRF1 EC50 to CRF2 EC50) is given as greater than 500. Besides, the values for the amount remaining at 2 h in data set [1] and in data set [2] were 84% and 80%, respectively. Also, the solubility at 1 h turned out to be 8.6 mg/mL (≈ 1770 µM) in data set [3] (pH 4.5, 100 mM acetate buffer) and 0.1 mg/mL (≈ 20.6 µM) in data set [3] (pH 7.4, 100 mM phosphate buffer).

In general, EC50 refers to the concentration at which the effect is half-maximal. The Emax is the size of the effect at its maximum, as opposed to the concentration needed. As usually defined, the amount remaining is the share of the starting amount still present when the sample was taken. For orientation: solubility means the dissolved amount per volume that the medium holds.

The record behind these values is patent publication US12679878B2, “CRF2 receptor agonists and their use in therapy” (SANOFI, priority 2020, dated 2026).
